Measurements published in ChEMBL document CHEMBL3137667, “[Drug-induced liver injury; fourteenth updated edition of the bibliographic database of liver injuries and related drugs]” (Gastroenterol Clin Biol, 2004).

Legend:
[1] = human
[2] = human; remark: listed apart in the source
[3] = human; remark: listed apart in the source
[4] = Highest frequency of acute liver toxicity observed during clinical trials, expressed as a percentage. [column '% AIGUE' in source]; conditions: human
[5] = human; remark: listed apart in the source
[6] = human, serum
[7] = Proposed mechanism(s) of liver damage. [column 'MEC' in source]; conditions: human
[8] = human; remark: listed apart in the source
[9] = human; remark: listed apart in the source
[10] = human; remark: listed apart in the source
[11] = human, serum, 4383 h
[12] = human; remark: listed apart in the source
[13] = human; remark: listed apart in the source
[14] = human, serum; remark: listed apart in the source
[15] = Highest frequency of moderate liver toxicity observed during clinical trials, expressed as a percentage. [column '% BIOL' in source]; conditions: human
[16] = Times to onset, minimal and maximal, observed in the indexed observations. [column 'DELAI' in source]; conditions: human
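Wherever Hepatotoxicity (association with vascular disease) is given: count of indexed literature references reporting vascular liver injury in humans, e.g. peliosis hepatitis, hepatic veno-occlusive disease or Budd-Chiari syndrome.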
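Wherever Hepatotoxicity (benign tumour) is given: value is a count of indexed literature references citing a benign tumour confirmed by histopathology.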
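Wherever Hepatotoxicity (choleostasis) is given: human cholestatic liver injury, shown by histopathology or by peak ALT or AST elevation over alkaline phosphatase ratio below 2, value counts indexed literature reports.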
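Wherever Hepatotoxicity (chronic liver disease) is given: chronic liver injury confirmed by histopathology or persistently raised serum aminotransferase activity beyond 6 months, value given as the count of indexed literature references.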
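Wherever Hepatotoxicity (cirrhosis) is given: value is a count of indexed literature references reporting cirrhosis confirmed by histopathology.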
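Wherever Hepatotoxicity (cytolytic) is given: human cytolytic liver injury, shown by histopathology or by a ratio above 5 of peak ALT or AST elevation to alkaline phosphatase elevation, value counts indexed references.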
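Wherever Hepatotoxicity (granulomatous hepatitis) is given: value is a count of indexed literature references reporting granulomatous liver disease confirmed by histopathology.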
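Wherever Hepatotoxicity (malignant tumour) is given: malignant tumour confirmed by histopathology, value gives the count of indexed literature references reporting it.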
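Wherever Hepatotoxicity (severe hepatitis) is given: human clinical data: severe hepatitis, meaning potentially life-threatening liver failure or clinically observed cases, the value counts how many indexed literature references report it.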
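Wherever Hepatotoxicity (steatosis) is given: steatosis confirmed by histopathology, value is the count of indexed references.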

Row | Structure (SMILES) | Hepatotoxicity (severe hepatitis) [1] | Hepatotoxicity (malignant tumour) [2] | Hepatotoxicity (cytolytic) [3] | Hepatotoxicity (acute) [4] [%] | Hepatotoxicity (association with vascular disease) [5] | Hepatotoxicity (moderate) [6] | Hepatotoxicity (mechanism) [7] | Hepatotoxicity (cirrhosis) [8] | Hepatotoxicity (steatosis) [9] | Hepatotoxicity (granulomatous hepatitis) [10] | Hepatotoxicity (chronic liver disease) [11] | Hepatotoxicity (benign tumour) [12] | Hepatotoxicity (choleostasis) [13] | Hepatotoxicity (acute) [14] | Hepatotoxicity (moderate) [15] [%] | other results
1 | CN1[C@@H]2CC[C@H]1C[C@@H](OC(=O)c1c[nH]c3ccccc13)C2 [TROPISETRON] | 0 | 0 | 1 | 4.5 | 0 | 3 | Dose-dependant | 0 | 0 | 0 | 0 | 0 | 0 | 1 | 40.9 | –
2 | O=C(NO)c1ccc(O)c(O)c1 | 0 | 0 | 0 | 0 | 0 | 1 | Dose-dependant | 0 | 0 | 0 | 0 | 0 | 0 | 1 | 0 | –
3 | COc1ccc(OC)c(Cc2cnc3nc(N)nc(N)c3c2C)c1 [PIRITREXIM] | 0 | 0 | 0 | 0 | 0 | 7 | Dose-dependant | 0 | 0 | 0 | 0 | 0 | 0 | 0 | 12.1 | –
4 | CC1(C)S[C@@H]2[C@H](NC(=O)C(c3ccccc3)S(=O)(=O)O)C(=O)N2[C@H]1C(=O)O (stereo not given in full) [SULBENICILLIN] | 0 | 0 | 0 | 1 | 0 | 3 | Allergic | 0 | 0 | 0 | 0 | 0 | 2 | 3 | 6.7 | –
5 | CO[C@@H]1[C@@H](N)[C@@H](O[C@H]2[C@H](Oc3cccc4c(O)c5c(=O)oc6ccc(C)c7c(=O)oc(c34)c5c67)O[C@H](C)[C@H](O)[C@]2(C)O)O[C@H](C)[C@@H]1O [ELSAMITRUCIN] | 1 | 0 | 0 | 1.6 | 0 | 4 | Dose-dependant | 0 | 0 | 0 | 0 | 0 | 0 | 2 | 13 | –
6 | CCC1(CC)C(=O)NCC(C)C1=O (stereo not given) [METHYPRYLON] | 0 | 0 | 1 | 0 | 0 | 1 | Dose-dependant | 0 | 0 | 0 | 0 | 0 | 1 | 1 | 0 | –
7 | CCCCNC(=N)NC(=N)N [BUFORMIN] | – | 0 | – | – | 0 | 0 | – | 0 | 0 | – | 0 | 0 | – | 1 | – | Hepatotoxicity (severe hepatitis) ([1]; Liver): 0; Hepatotoxicity (cytolytic) ([3]; Liver): 0; Hepatotoxicity (acute) ([4]; Liver): 0%; Hepatotoxicity (mechanism) ([7]; Liver): Allergic; Hepatotoxicity (granulomatous hepatitis) ([10]; Liver): 0; Hepatotoxicity (choleostasis) ([13]; Liver): 0; Hepatotoxicity (moderate) ([15]; Liver): 0%
8 | O=C1CN(/N=C/c2ccc([N+](=O)[O-])o2)C(=O)N1CO [NIFURTOINOL] | 0 | 0 | 0 | 0 | 0 | 0 | Allergic | 0 | 0 | 0 | 2 | 0 | 0 | 0 | 0 | –
9 | CN(Cc1cnc2nc(N)nc(N)c2n1)c1c(Cl)cc(C(=O)N[C@@H](CCC(=O)O)C(=O)O)cc1Cl | 0 | 0 | 0 | 0 | 0 | 2 | Dose-dependant | 0 | 0 | 0 | 0 | 0 | 0 | 0 | 16.7 | –
10 | CS(=O)(=O)c1ccc([C@@H](O)[C@@H](CO)NC(=O)C(Cl)Cl)cc1 [THIAMPHENICOL] | 0 | 0 | 0 | 0 | 0 | 0 | Allergic | 0 | 0 | 0 | 0 | 0 | 0 | 1 | 0 | –
11 | O=C(Cn1c(=O)sc2ccc(Cl)cc21)N1CCN(CCO)CC1 [TIARAMIDE] | 0 | 0 | 1 | 0 | 0 | 0 | Allergic | 0 | 0 | 0 | 0 | 0 | 1 | 1 | 0 | –
12 | O[C@H]1[C@H]2[C@H](O)CCCN2C[C@H]1O [TRIDOLGOSIR] | 0 | 0 | 0 | 10.5 | 0 | 2 | Dose-dependant | 0 | 0 | 0 | 0 | 0 | 0 | 1 | 52.6 | –
13 | COc1ccccc1Oc1c(NS(=O)(=O)c2ccc(C(C)(C)C)cc2)nc(-c2ncccn2)nc1OCCO [BOSENTAN] | 0 | 0 | 4 | 5.3 | 0 | 12 | Dose-dependant | 0 | 0 | 0 | 0 | 0 | 1 | 5 | 15 | –
14 | Nc1ccc(C(=O)O)cc1 [AMINOBENZOIC ACID] | 0 | 0 | 2 | 0 | 0 | 1 | – | 0 | 0 | 0 | 0 | 0 | 0 | 3 | 35 | Hepatotoxicity (time to onset) [16]: 4 weeks - 2 months
